# Test results: PubChem BioAssay (NCI)
#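 Assay format: 96-well plates, 48-hour exposure. TGI: total growth inhibition.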
# Assays:
# Experiment in all cases: NCI anticancer screen, dose series, 48 h
# EKVX NSCLC = tested on: EKVX NSCLC
# A498 renal = tested on: A498 renal
# OVCAR-5 ovarian = tested on: OVCAR-5 ovarian
# HCT-15 colon = tested on: HCT-15 colon
# SNB-78 CNS = tested on: SNB-78 CNS
# CCRF-CEM leukemia = tested on: CCRF-CEM leukemia
# M19-MEL melanoma = tested on: M19-MEL melanoma
# SF-295 CNS = tested on: SF-295 CNS
# SNB-19 CNS = tested on: SNB-19 CNS
# MALME-3M melanoma = tested on: MALME-3M melanoma
# NCI-H522 lung = tested on: NCI-H522 lung
# OVCAR-4 ovarian = tested on: OVCAR-4 ovarian
# M14 melanoma = tested on: M14 melanoma
# IGROV1 ovarian = tested on: IGROV1 ovarian
# ACHN renal = tested on: ACHN renal
# OVCAR-3 ovarian = tested on: OVCAR-3 ovarian
# SF-268 CNS = tested on: SF-268 CNS
# SK-MEL-5 melanoma = tested on: SK-MEL-5 melanoma
# RXF 393 renal = tested on: RXF 393 renal
# HOP-18 NSCLC = tested on: HOP-18 NSCLC
# SK-MEL-28 melanoma = tested on: SK-MEL-28 melanoma
# NCI-H23 lung = tested on: NCI-H23 lung
# LXFL 529 NSCLC = tested on: LXFL 529 NSCLC
# COLO 205 colon = tested on: COLO 205 colon
# KM20L2 colon = tested on: KM20L2 colon
# 786-0 renal = tested on: 786-0 renal
# TK-10 renal = tested on: TK-10 renal
# NCI-H226 lung = tested on: NCI-H226 lung
# SF-539 CNS = tested on: SF-539 CNS
# KM12 colon = tested on: KM12 colon
# OVCAR-8 ovarian = tested on: OVCAR-8 ovarian
# DLD-1 colon = tested on: DLD-1 colon
# U251 CNS = tested on: U251 CNS
# SN12C renal = tested on: SN12C renal
# NCI-H460 lung = tested on: NCI-H460 lung
# UACC-257 melanoma = tested on: UACC-257 melanoma
# DMS 114 small cell lung = tested on: DMS 114 small cell lung
# SK-MEL-2 melanoma = tested on: SK-MEL-2 melanoma
# HOP-92 NSCLC = tested on: HOP-92 NSCLC
# XF 498 CNS = tested on: XF 498 CNS
# SNB-75 CNS = tested on: SNB-75 CNS
# A549 NSCLC = tested on: A549 NSCLC
# DMS 273 small cell lung = tested on: DMS 273 small cell lung
# HOP-62 NSCLC = tested on: HOP-62 NSCLC
# HCC-2998 colon = tested on: HCC-2998 colon
# SW-620 colon = tested on: SW-620 colon
# UO-31 renal = tested on: UO-31 renal
# HCT-116 colon = tested on: HCT-116 colon
# HL-60(TB) leukemia = tested on: HL-60(TB) leukemia
# UACC-62 melanoma = tested on: UACC-62 melanoma
# LOX IMVI melanoma = tested on: LOX IMVI melanoma
# SK-OV-3 ovarian = tested on: SK-OV-3 ovarian
# HT29 colon = tested on: HT29 colon
# RXF-631 renal = tested on: RXF-631 renal
# K-562 leukemia = tested on: K-562 leukemia
# MDA-MB-435 = tested on: MDA-MB-435
# MCF7 breast = tested on: MCF7 breast
# MDA-N = tested on: MDA-N
# HS 578T breast = tested on: HS 578T breast
# MOLT-4 leukemia = tested on: MOLT-4 leukemia
# SR leukemia = tested on: SR leukemia
# DU-145 prostate = tested on: DU-145 prostate
# RPMI-8226 leukemia = tested on: RPMI-8226 leukemia
# PC-3 prostate = tested on: PC-3 prostate
# BT-549 breast = tested on: BT-549 breast
# T-47D breast = tested on: T-47D breast
# MDA-MB-231 breast = tested on: MDA-MB-231 breast
# CAKI-1 renal = tested on: CAKI-1 renal
compound,measurement,setting,value
CCCCCCCCCCCCC(Br)C(=O)SCCNC(=O)CCNC(=O)[C@@H](O)C(C)(C)COP(=O)(O)OP(=O)(O)OCC1OC(n2cnc3c(N)ncnc32)C(O)C1OP(=O)(O)O (stereo partly drawn),TGI,EKVX NSCLC,> 56.5 µM
same,TGI,A498 renal,> 56.5 µM
same,TGI,OVCAR-5 ovarian,> 56.5 µM
same,TGI,HCT-15 colon,> 56.5 µM
same,TGI,SNB-78 CNS,> 56.5 µM
same,TGI,CCRF-CEM leukemia,> 56.5 µM
same,TGI,M19-MEL melanoma,> 56.5 µM
same,TGI,SF-295 CNS,> 56.5 µM
same,TGI,SNB-19 CNS,> 56.5 µM
same,TGI,MALME-3M melanoma,> 56.5 µM
same,TGI,NCI-H522 lung,> 56.5 µM
same,TGI,OVCAR-4 ovarian,> 56.5 µM
same,TGI,M14 melanoma,> 56.5 µM
same,TGI,IGROV1 ovarian,> 56.5 µM
same,TGI,ACHN renal,> 56.5 µM
same,TGI,OVCAR-3 ovarian,> 56.5 µM
same,TGI,SF-268 CNS,> 56.5 µM
same,TGI,SK-MEL-5 melanoma,> 56.5 µM
same,TGI,RXF 393 renal,> 56.5 µM
same,TGI,HOP-18 NSCLC,> 56.5 µM
same,TGI,SK-MEL-28 melanoma,> 56.5 µM
same,TGI,NCI-H23 lung,> 56.5 µM
same,TGI,LXFL 529 NSCLC,> 56.5 µM
same,TGI,COLO 205 colon,> 56.5 µM
same,TGI,KM20L2 colon,> 56.5 µM
same,TGI,786-0 renal,> 56.5 µM
same,TGI,TK-10 renal,> 56.5 µM
same,TGI,NCI-H226 lung,> 56.5 µM
same,TGI,SF-539 CNS,> 56.5 µM
same,TGI,KM12 colon,> 56.5 µM
same,TGI,OVCAR-8 ovarian,> 56.5 µM
same,TGI,DLD-1 colon,> 56.5 µM
same,TGI,U251 CNS,> 56.5 µM
same,TGI,SN12C renal,> 56.5 µM
same,TGI,NCI-H460 lung,> 56.5 µM
same,TGI,UACC-257 melanoma,40.4 µM
same,TGI,DMS 114 small cell lung,> 56.5 µM
same,TGI,SK-MEL-2 melanoma,> 56.5 µM
same,TGI,HOP-92 NSCLC,> 56.5 µM
same,TGI,XF 498 CNS,> 56.5 µM
same,TGI,SNB-75 CNS,> 56.5 µM
same,TGI,A549 NSCLC,> 56.5 µM
same,TGI,DMS 273 small cell lung,> 56.5 µM
same,TGI,HOP-62 NSCLC,> 56.5 µM
same,TGI,HCC-2998 colon,> 56.5 µM
same,TGI,SW-620 colon,> 56.5 µM
same,TGI,UO-31 renal,> 56.5 µM
same,TGI,HCT-116 colon,> 56.5 µM
same,TGI,HL-60(TB) leukemia,> 56.5 µM
same,TGI,UACC-62 melanoma,> 56.5 µM
same,TGI,LOX IMVI melanoma,> 56.5 µM
same,TGI,SK-OV-3 ovarian,> 56.5 µM
same,TGI,HT29 colon,> 56.5 µM
CC(=O)OCCOCNC(=S)N/N=C(\C)c1ccco1,TGI,EKVX NSCLC,> 100 µM
same,TGI,A498 renal,> 100 µM
same,TGI,OVCAR-5 ovarian,> 100 µM
same,TGI,HCT-15 colon,> 100 µM
same,TGI,SNB-78 CNS,> 100 µM
same,TGI,CCRF-CEM leukemia,> 100 µM
same,TGI,M19-MEL melanoma,> 100 µM
same,TGI,SF-295 CNS,> 100 µM
same,TGI,SNB-19 CNS,> 100 µM
same,TGI,MALME-3M melanoma,> 100 µM
same,TGI,NCI-H522 lung,> 100 µM
same,TGI,OVCAR-4 ovarian,> 100 µM
same,TGI,M14 melanoma,> 100 µM
same,TGI,IGROV1 ovarian,> 100 µM
same,TGI,ACHN renal,> 100 µM
same,TGI,OVCAR-3 ovarian,> 100 µM
same,TGI,SF-268 CNS,> 100 µM
same,TGI,RXF-631 renal,> 100 µM
same,TGI,SK-MEL-5 melanoma,> 100 µM
same,TGI,RXF 393 renal,> 100 µM
same,TGI,HOP-18 NSCLC,> 100 µM
same,TGI,SK-MEL-28 melanoma,> 100 µM
same,TGI,NCI-H23 lung,> 100 µM
same,TGI,LXFL 529 NSCLC,> 100 µM
same,TGI,COLO 205 colon,> 100 µM
same,TGI,KM20L2 colon,> 100 µM
same,TGI,786-0 renal,> 100 µM
same,TGI,TK-10 renal,> 100 µM
same,TGI,NCI-H226 lung,> 100 µM
same,TGI,SF-539 CNS,> 100 µM
same,TGI,KM12 colon,> 100 µM
same,TGI,OVCAR-8 ovarian,> 100 µM
same,TGI,DLD-1 colon,> 100 µM
same,TGI,U251 CNS,> 100 µM
same,TGI,SN12C renal,> 100 µM
same,TGI,NCI-H460 lung,> 100 µM
same,TGI,UACC-257 melanoma,> 100 µM
same,TGI,DMS 114 small cell lung,> 100 µM
same,TGI,SK-MEL-2 melanoma,> 100 µM
same,TGI,SNB-75 CNS,> 100 µM
same,TGI,A549 NSCLC,> 100 µM
same,TGI,DMS 273 small cell lung,> 100 µM
same,TGI,HOP-62 NSCLC,> 100 µM
same,TGI,HCC-2998 colon,> 100 µM
same,TGI,SW-620 colon,> 100 µM
same,TGI,UO-31 renal,> 100 µM
same,TGI,K-562 leukemia,> 100 µM
same,TGI,HCT-116 colon,> 100 µM
same,TGI,UACC-62 melanoma,> 100 µM
same,TGI,LOX IMVI melanoma,> 100 µM
same,TGI,SK-OV-3 ovarian,> 100 µM
same,TGI,HT29 colon,> 100 µM
O=C(O)/C(Cl)=C(/Cl)C(=O)Nc1cccc(Cl)c1,TGI,MDA-MB-435,46.5 µM
same,TGI,EKVX NSCLC,33.6 µM
same,TGI,A498 renal,> 100 µM
same,TGI,MCF7 breast,62.8 µM
same,TGI,OVCAR-5 ovarian,39.7 µM
same,TGI,HCT-15 colon,34.9 µM
same,TGI,MDA-N,37.4 µM
same,TGI,SNB-78 CNS,61 µM
same,TGI,CCRF-CEM leukemia,19 µM
same,TGI,M19-MEL melanoma,30.4 µM
same,TGI,SF-295 CNS,> 62.2 µM
same,TGI,SNB-19 CNS,> 92.5 µM
same,TGI,MALME-3M melanoma,31.7 µM
same,TGI,NCI-H522 lung,10.1 µM
same,TGI,OVCAR-4 ovarian,33.6 µM
same,TGI,M14 melanoma,43.2 µM
same,TGI,IGROV1 ovarian,39 µM
same,TGI,ACHN renal,36.8 µM
same,TGI,OVCAR-3 ovarian,31.4 µM
same,TGI,SF-268 CNS,48.3 µM
same,TGI,RXF-631 renal,49.1 µM
same,TGI,SK-MEL-5 melanoma,33.1 µM
same,TGI,RXF 393 renal,30 µM
same,TGI,HOP-18 NSCLC,43.3 µM
same,TGI,SK-MEL-28 melanoma,32.8 µM
same,TGI,HS 578T breast,71.6 µM
same,TGI,MOLT-4 leukemia,8.45 µM
same,TGI,NCI-H23 lung,36.4 µM
same,TGI,LXFL 529 NSCLC,30.3 µM
same,TGI,COLO 205 colon,23.3 µM
same,TGI,KM20L2 colon,47.3 µM
same,TGI,SR leukemia,26.4 µM
same,TGI,786-0 renal,31.8 µM
same,TGI,TK-10 renal,33.8 µM
same,TGI,NCI-H226 lung,67.2 µM
same,TGI,DU-145 prostate,> 100 µM
same,TGI,RPMI-8226 leukemia,46.2 µM
same,TGI,SF-539 CNS,> 70.3 µM
same,TGI,KM12 colon,47.7 µM
same,TGI,OVCAR-8 ovarian,38.9 µM
same,TGI,DLD-1 colon,34 µM
same,TGI,U251 CNS,59.9 µM
same,TGI,SN12C renal,36.9 µM
same,TGI,NCI-H460 lung,> 100 µM
same,TGI,UACC-257 melanoma,47 µM
same,TGI,DMS 114 small cell lung,32.2 µM
same,TGI,SK-MEL-2 melanoma,49.8 µM
same,TGI,PC-3 prostate,38.5 µM
same,TGI,HOP-92 NSCLC,30.8 µM
same,TGI,XF 498 CNS,34.3 µM
same,TGI,SNB-75 CNS,40.1 µM
same,TGI,A549 NSCLC,> 100 µM
same,TGI,DMS 273 small cell lung,18.9 µM
same,TGI,HOP-62 NSCLC,> 76.3 µM
same,TGI,HCC-2998 colon,37.1 µM
same,TGI,BT-549 breast,34.1 µM
same,TGI,SW-620 colon,32.1 µM
same,TGI,UO-31 renal,37.4 µM
same,TGI,K-562 leukemia,40.1 µM
same,TGI,HCT-116 colon,31.8 µM
same,TGI,T-47D breast,50.8 µM
same,TGI,HL-60(TB) leukemia,22.7 µM
same,TGI,UACC-62 melanoma,31.7 µM
same,TGI,MDA-MB-231 breast,28.1 µM
same,TGI,CAKI-1 renal,16.3 µM
same,TGI,LOX IMVI melanoma,20.8 µM
same,TGI,SK-OV-3 ovarian,25.4 µM
same,TGI,HT29 colon,42.3 µM
